In test [1] the test system is HCV RNA replicon in cell line ET (luc-ubi-neo/ET), human Huh7 hepatoma. The experiment in a line: HCV RNA replicon assay, Example 14 Method A. As to conditions: Hepatitis C virus, Huh-7, assay of Example 14, 72 hr. It counts as cell-based. (A replicon is a self-replicating genome or part of one, used to study replication in cells.)
For the next test, the target named is T1, HCV NS3/4A wild type (Hepatitis C virus genotype 1b, UniProt Q9WMX2).
T1 construct: HCV NS3/4A wild type (wt) was incubated for 1 hr at a 10× fold access of test compound to protein; purchased Bioenza, Calif
The experiment in a line: Mass spectrometric analysis of covalent modification (MALDI-TOF). It counts as binding. To be noted: 10× excess of test compound to protein. The procedure, abridged: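 HCV NS3/4A protease (100 pmol wild type; C159S mutant as comparison) incubated with 10-fold molar excess of compound for 1 and 3 h. Samples acidified in 0.1% TFA, C4 ZipTip-desalted, analysed by MALDI-TOF intact-mass measurement in linear mode, sinapinic acid matrix.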

The target in test [2] is T2, HCV NS3/4A 1b protease wild type (Hepatitis C virus genotype 1b, UniProt Q9WMX2).
T2 construct: 10× stocks of NS3/4A protease enzyme from Bioenza (Mountain View, Calif.); purchased Bioenza (Mountain View, Calif.)
The experiment in a line: HCV protease FRET assay (IC50_APP), Example 16. It counts as biochemical.

The target of test [3] is T3, HCV NS3/4A 1b protease D168A (Hepatitis C virus genotype 1b, UniProt Q9WMX2, D1194A).
T3 construct: 10× stocks of NS3/4A protease enzyme from Bioenza (Mountain View, Calif.); purchased Bioenza (Mountain View, Calif.)
Kind of test: HCV protease FRET assay (IC50_APP), Example 16. It counts as biochemical.

The target of test [4] is T4, HCV NS3/4A 1b protease A156T (Hepatitis C virus genotype 1b, UniProt Q9WMX2, A1182T).
T4 construct: 10× stocks of NS3/4A protease enzyme from Bioenza (Mountain View, Calif.); purchased Bioenza (Mountain View, Calif.)
The experiment in a line: HCV protease FRET assay (IC50_APP), Example 16. It counts as biochemical.

Test [5] deals with T2, HCV NS3/4A 1b protease wild type. Kind of test: HCV protease FRET assay (IC50), Example 15. It counts as biochemical. As to the method:
(§1) The following protocol was used to generate IC50 values as depicted for compound 239 in Table 4, above. The protocol is a modified FRET-based assay (v—02) from In Vitro Resistance Studies of HCV Serine Protease Inhibitors, 2004, JBC, vol. 279, No. 17, pp 17508-17514.
(§2) 10× stocks of NS3/4A protease enzyme from Bioenza (Mountain View, Calif.) and 1.13× 5-FAM/QXL™520 FRET peptide substrate from Anaspec (San Jose, Calif.) were prepared in 50 mM HEPES, pH 7.8, 100 mM NaCl, 5 mM DTT and 20% glycerol. 5 μL of each enzyme were pre-incubated in a Corning (#3573) 384-well, black, non-treated microtiter plate (Corning, N.Y.) for 30 min at 25° C. with a 0.5 μL volume of 50% DMSO and serially diluted compounds prepared in 50% DMSO. Protease reactions were started with the addition of 45 μL of the FRET substrate and monitored for 120 minutes at λex487/λem514 through Quad^4 monochromoters in a Synergy^4 plate reader from BioTek (Winooski, Vt.). At the conclusion of each assay, progress curves from each well were examined for linear reaction kinetics and fit statistics (R^2, absolute sum of squares). Initial velocity (0 minutes to 30+ minutes) from each reaction was determined from the slope of a plot of relative fluorescence units vs time (minutes) and then plotted against inhibitor concentration to estimate IC50 from log [Inhibitor] vs Response, Variable Slope model in GraphPad Prism from GraphPad Software (San Diego, Calif.).
(§3) The compound numbers correspond to the compound numbers in Table 3. […] ;

Test [6] concerns the target T3, HCV NS3/4A 1b protease D168A. Kind of test: HCV protease FRET assay (IC50), Example 15. It counts as biochemical. As to the method:
as §1, §2, §3

In test [7] the target is T4, HCV NS3/4A 1b protease A156T. The experiment in a line: HCV protease FRET assay (IC50), Example 15. It counts as biochemical. Here is the method: as §1, §2, §3
The target of the next test is HCV NS3•4A protease WT (Hepatitis C virus genotype 1b, UniProt Q9WMX2). Kind of test: cell-based.
The target of test [8] is T5, HCV NS3/4A 1b protease R155K (Hepatitis C virus genotype 1b, UniProt Q9WMX2, R1181K).
T5 construct: 10× stocks of NS3/4A protease enzyme from Bioenza (Mountain View, Calif.); purchased Bioenza (Mountain View, Calif.)
Kind of test: HCV protease FRET assay (IC50_APP), Example 16. As to conditions: reaction started immediately after enzyme addition, read-out: Inhibition (apparent IC50, IC50_APP), HCV R155K. It counts as biochemical.

Test [9] deals with T6, HCV NS3/4A 1b protease C159S (Hepatitis C virus genotype 1b, UniProt Q9WMX2, C1185S).
T6 construct: 10× stocks of NS3/4A protease enzyme from Bioenza (Mountain View, Calif.); purchased Bioenza (Mountain View, Calif.)
The experiment in a line: HCV protease FRET assay (IC50_APP), Example 16. It counts as biochemical. As to conditions: reaction started immediately after enzyme addition, read-out: Inhibition (apparent IC50, IC50_APP), HCV C159S.

The test system of test [10] is HCV RNA replicon in cell line ET (luc-ubi-neo/ET), human Huh7 hepatoma. Kind of test: Replicon luciferase assay, Example 26. It counts as cell-based. To be noted: Hepatitis C virus, Huh-7, assay of Example 26, 72 hr, read-out: Inhibition, Replicon, EC50 value. The procedure, abridged:
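Huh7-derived ET cells carrying a luciferase-reporter HCV replicon, 5×10^3 cells/well, exposed 72 h to six 3-fold compound concentrations in DMEM with 5% FBS. Replicon luciferase gives EC50/EC90; Cell Titer Blue cell number gives cytotoxic IC50, with SI50 as their ratio. Interferon alpha-2b served as positive control.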

Turning to `C=CC(=O)NC[C@H](NC(=O)OC(C)(C)C)C(=O)N1C[C@H](OC(=O)N2Cc3cccc(F)c3C2)C[C@H]1C(=O)N[C@]1(C(=O)NS(=O)(=O)C2CC2)C[C@H]1C=C` [Compound I-1, (3R,5S)-1-((S)-3-acrylamido-2-(tert-butoxycarbonylamino)propanoyl)-5-((1R,2S)-1-(cyclopropylsulfonylcarbamoyl)-2-vinylcyclopropylcarbamoyl)pyrrolidin-3-yl 4-fluoroisoindoline-2-carboxylate], the IC50 in [1] (read-out: Inhibition, Replicon (IC50)) is 10 to 100 nM; in [2], less than 10 nM; in test [3], 100 to 1000 nM; in test [4], 10 to 100 nM; in [5] it was less than 10 nM; in [6] (Comparative IC50 Values, D168A, biochemical assay, applicant's compound) it was 8 nM. The IC50 in test [6] (Inhibition (IC50), HCV D168A, FRET, 30 min pre-incubation at 25° C.) is less than 10 nM; in [7] (Comparative IC50 Values, A156T, biochemical assay, applicant's compound), 3 nM; in [7] (Inhibition (IC50), HCV A156T, FRET, 30 min pre-incubation at 25° C.) it was less than 10 nM; at HCV NS3•4A protease WT, 0.66 nM. Also, the IC90 in test [1] (read-out: Inhibition, Replicon, IC90 value) was in the range of 10 to 100 nM. The “Covalent modification of HCV NS3/4A wild type” value at HCV NS3/4A wild type (MALDI-TOF) is reported as “reacted significantly”. On HCV NS3/4A wild type (1 hr), the “Mass increase of new protein species vs protein with no compound” value is reported as “approximately 751 Da”.

`C=C[C@@H]1C[C@]1(NC(=O)[C@@H]1CC(OC(=O)N2Cc3cccc(F)c3C2)CN1C(=O)[C@H](CC(=O)C=C(C)C)NC(=O)OC(C)(C)C)C(=O)NS(=O)(=O)C1CC1` (stereo partly shown) [Compound I-32]: the IC50 in test [8] is 10 to 100 nM; in test [2], less than 10 nM; in [3], 10 to 100 nM; in test [9] it was less than 10 nM; in test [4] it was less than 10 nM. Besides, the EC50 in test [10] is less than 10 nM.

For orientation: IC50 means the point on the concentration scale where inhibition reaches its midpoint. As a reminder, the IC90 is the concentration needed for an effect of 90%. The term EC50 denotes the concentration at which the effect is half-maximal.

These data come from patent US8293705B2, “HCV protease inhibitors and uses thereof” (Avila Therapeutics, Inc., priority 2007, dated 2012).
